Values quoted from earlier work as cited in US7807682B2, “Pyridyl cyanoguanidine compounds” (Leo Pharma A/S, priority 2001, dated 2010).

What was measured:
[1] = system: normal human endothelial cells
human tumour cells = settings: nude mice transplanted with human tumour cells, also paclitaxel-resistant tumour cells

## N#CNC(=Nc1ccncc1)NCCCCCCOc1ccc(Cl)cc1 [N-(6-(4-chlorophenoxy)hexyl)-N′-cyano-N″-(4-pyridyl)guanidine]
[1]
  antiproliferative activity on normal human endothelial cells: considerably less antiproliferative activity
Human tumour cells
  antitumour activity in vivo: substantial antitumour activity
